Data published in ChEMBL document CHEMBL1128968, “Phosphinic acid inhibitors of matrix metalloproteinases” (Bioorg Med Chem Lett, 1996).
Values belong to the molecule of their own block, whether it stands above or below them.

Columns and labels:
[1] = target: T1, Stromelysin-1 (Homo sapiens, UniProt P08254); test: Inhibition of stromelysin-1 (MMP-3).
[2] = target: T2, 72 kDa type IV collagenase (Homo sapiens, UniProt P08253); test: Inhibition of gelatinase-A (MMP-2).
Target sequence in this assay (P08253 whole entry): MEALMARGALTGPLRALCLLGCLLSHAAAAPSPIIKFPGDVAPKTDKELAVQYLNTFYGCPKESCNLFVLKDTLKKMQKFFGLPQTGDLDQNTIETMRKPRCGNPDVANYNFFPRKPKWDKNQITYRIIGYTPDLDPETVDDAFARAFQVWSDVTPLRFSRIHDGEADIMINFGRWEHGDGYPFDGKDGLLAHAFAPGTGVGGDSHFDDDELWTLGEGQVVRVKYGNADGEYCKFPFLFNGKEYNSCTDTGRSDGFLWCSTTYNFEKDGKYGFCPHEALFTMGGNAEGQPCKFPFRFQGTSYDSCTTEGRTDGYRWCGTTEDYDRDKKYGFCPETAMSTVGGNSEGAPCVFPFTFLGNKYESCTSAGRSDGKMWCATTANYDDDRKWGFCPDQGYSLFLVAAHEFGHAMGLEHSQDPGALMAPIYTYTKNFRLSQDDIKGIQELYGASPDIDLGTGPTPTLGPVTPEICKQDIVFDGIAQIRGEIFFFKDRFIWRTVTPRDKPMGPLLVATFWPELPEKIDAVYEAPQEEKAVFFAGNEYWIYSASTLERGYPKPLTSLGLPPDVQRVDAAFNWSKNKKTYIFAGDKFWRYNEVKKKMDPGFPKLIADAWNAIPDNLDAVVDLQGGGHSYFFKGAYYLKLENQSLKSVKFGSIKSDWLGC

[3] = target: T3, Interstitial collagenase (Homo sapiens, UniProt P03956); test: Inhibition of collagenase-1 (MMP-1).
T3 sequence (P03956 whole entry): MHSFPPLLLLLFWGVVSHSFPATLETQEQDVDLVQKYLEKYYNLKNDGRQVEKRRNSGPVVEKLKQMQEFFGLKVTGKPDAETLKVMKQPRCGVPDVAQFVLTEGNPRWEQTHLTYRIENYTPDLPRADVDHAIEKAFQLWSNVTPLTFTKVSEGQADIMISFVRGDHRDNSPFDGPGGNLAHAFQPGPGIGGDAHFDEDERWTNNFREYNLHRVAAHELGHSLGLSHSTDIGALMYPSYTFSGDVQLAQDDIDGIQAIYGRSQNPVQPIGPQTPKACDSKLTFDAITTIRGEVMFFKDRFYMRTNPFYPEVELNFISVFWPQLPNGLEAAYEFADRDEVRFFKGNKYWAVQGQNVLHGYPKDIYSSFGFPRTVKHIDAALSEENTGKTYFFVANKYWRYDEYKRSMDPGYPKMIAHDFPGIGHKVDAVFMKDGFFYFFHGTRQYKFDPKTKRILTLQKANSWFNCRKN

[4] = target: T2, 72 kDa type IV collagenase; test: Inhibition of gelatinase-A (MMP-2) at a concentration of 1 uM
Target sequence in this assay (P08253 110-660 limits assumed): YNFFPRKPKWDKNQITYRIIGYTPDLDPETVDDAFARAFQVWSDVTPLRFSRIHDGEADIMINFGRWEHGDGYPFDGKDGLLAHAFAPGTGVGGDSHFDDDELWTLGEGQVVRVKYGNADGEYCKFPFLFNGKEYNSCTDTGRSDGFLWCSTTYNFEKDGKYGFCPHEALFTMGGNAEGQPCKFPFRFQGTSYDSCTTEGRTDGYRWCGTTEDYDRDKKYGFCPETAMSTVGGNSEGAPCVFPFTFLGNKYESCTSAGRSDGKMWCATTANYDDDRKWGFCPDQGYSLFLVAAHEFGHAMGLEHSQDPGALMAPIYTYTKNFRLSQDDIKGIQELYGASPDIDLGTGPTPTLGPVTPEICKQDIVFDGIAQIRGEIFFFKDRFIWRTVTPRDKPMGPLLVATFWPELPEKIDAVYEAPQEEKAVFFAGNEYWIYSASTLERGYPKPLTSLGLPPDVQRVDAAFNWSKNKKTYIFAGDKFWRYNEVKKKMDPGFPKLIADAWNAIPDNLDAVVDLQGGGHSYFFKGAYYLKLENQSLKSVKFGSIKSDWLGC

[5] = target: T1, Stromelysin-1; test: Inhibition of stromelysin-1 (MMP-3)
[6] = target: T2, 72 kDa type IV collagenase; test: Inhibition of gelatinase-A (MMP-2)
Target sequence in this assay (P08253 whole entry): as the sequence (P08253 whole entry) above

T1 sequence (P08254 whole entry): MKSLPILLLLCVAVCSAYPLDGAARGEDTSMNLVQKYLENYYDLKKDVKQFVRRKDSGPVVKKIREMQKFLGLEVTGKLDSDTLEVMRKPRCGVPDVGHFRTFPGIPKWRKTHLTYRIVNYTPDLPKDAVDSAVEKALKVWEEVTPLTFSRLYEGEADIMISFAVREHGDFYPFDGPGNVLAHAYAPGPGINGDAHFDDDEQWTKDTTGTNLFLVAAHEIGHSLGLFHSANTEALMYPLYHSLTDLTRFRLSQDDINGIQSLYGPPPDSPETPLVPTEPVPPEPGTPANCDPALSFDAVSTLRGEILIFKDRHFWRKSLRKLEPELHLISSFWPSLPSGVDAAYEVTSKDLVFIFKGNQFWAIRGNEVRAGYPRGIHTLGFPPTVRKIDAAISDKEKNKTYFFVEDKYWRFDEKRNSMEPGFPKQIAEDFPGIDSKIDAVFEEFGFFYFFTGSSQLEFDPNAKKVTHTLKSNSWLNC

Ki [1]: 410 nM
SMILES: CC(C)C[C@H](NC(=O)[C@H](CCc1ccccc1)CP(=O)(O)CNC(=O)CN1C(=O)c2ccccc2C1=O)C(=O)Nc1ccccc1

Ki [2]: 2.1 nM
Ki [3]: ≥ 10000 nM
Ki [1]: 2.5 nM
SMILES: COc1cccc(CC[C@H](CP(=O)(O)CCCCN2C(=O)c3ccccc3C2=O)C(=O)N[C@@H](CC(C)C)C(=O)Nc2ccccc2)c1

Ki [2]: 570 nM
Ki [3]: ≥ 10000 nM
Ki [1]: 1500 nM
SMILES: CC(C)C[C@H](NC(=O)[C@H](CCc1ccccc1)CP(C)(=O)O)C(=O)Nc1ccccc1

inhibition [4]: 60%
Ki [3]: ≥ 10000 nM
Ki [1]: 470 nM
SMILES: CC(C)C[C@H](NC(=O)[C@H](CCc1ccccc1)CP(=O)(O)CCC(=O)Nc1ccccc1)C(=O)Nc1ccccc1

Ki [2]: 12 nM
Ki [3]: ≥ 10000 nM
Ki [1]: 2.3 nM
SMILES: COc1ccc(CC[C@H](CP(=O)(O)CCCCN2C(=O)c3ccccc3C2=O)C(=O)N[C@@H](CC(C)C)C(=O)Nc2ccccc2)cc1

inhibition [4]: 73%
Ki [3]: ≥ 10000 nM
Ki [1]: 56 nM
SMILES: CC(C)C[C@H](NC(=O)[C@H](CCc1ccccc1)CP(=O)(O)CCCCNC(=O)Oc1ccccc1)C(=O)Nc1ccccc1

Ki [2]: 2.1 nM
Ki [3]: ≥ 10000 nM
Ki [1]: 13 nM
SMILES: CC(C)C[C@H](NC(=O)[C@H](CCc1ccccc1)CP(=O)(O)CCCCNC(=O)[C@@H]1CCCN1C(=O)c1ccccc1)C(=O)Nc1ccccc1

inhibition [4]: 58%
Ki [3]: ≥ 10000 nM
Ki [1]: 170 nM
SMILES: CC(C)C[C@H](NC(=O)[C@H](CCc1ccccc1)CP(=O)(O)CCC(=O)NCCc1ccccc1)C(=O)Nc1ccccc1

inhibition [4]: 46%
Ki [3]: ≥ 10000 nM
Ki [1]: 670 nM
SMILES: CC(C)C[C@H](NC(=O)[C@H](CCc1ccccc1)CP(=O)(O)CCC(=O)NCCCc1ccccc1)C(=O)Nc1ccccc1

Ki [2]: 1300 nM
Ki [3]: ≥ 10000 nM
Ki [1]: 520 nM
SMILES: COC(=O)CCP(=O)(O)C[C@@H](CCc1ccccc1)C(=O)N[C@@H](CC(C)C)C(=O)Nc1ccccc1

inhibition [4]: 87%
Ki [3]: ≥ 10000 nM
Ki [1]: 130 nM
SMILES: CNC(=O)NCCCCP(=O)(O)C[C@@H](CCc1ccccc1)C(=O)N[C@@H](CC(C)C)C(=O)Nc1ccccc1

inhibition [4]: 92%
Ki [3]: ≥ 10000 nM
Ki [1]: 26 nM
SMILES: CC(=O)N1CCC[C@@H]1C(=O)NCCCCP(=O)(O)C[C@@H](CCc1ccccc1)C(=O)N[C@@H](CC(C)C)C(=O)Nc1ccccc1

inhibition [4]: 90%
Ki [3]: ≥ 10000 nM
Ki [1]: 54 nM
SMILES: COC(=O)NCCCCP(=O)(O)C[C@@H](CCc1ccccc1)C(=O)N[C@@H](CC(C)C)C(=O)Nc1ccccc1

IC50 [3]: > 32000 nM
IC50 [1]: > 200000 nM
SMILES: CC(C)C[C@H](NC(=O)[C@H](Cc1ccccc1)OP(=O)(O)CCCCN1C(=O)c2ccccc2C1=O)C(=O)NCc1ccccc1

IC50 [3]: 4100 nM
IC50 [1]: 430 nM
SMILES: CC(C)C[C@H](NC(=O)[C@H](Cc1ccccc1)CP(=O)(O)CCCCN1C(=O)c2ccccc2C1=O)C(=O)NCc1ccccc1

Further lines, the molecule ahead of its results:

SMILES: COc1ccccc1CC[C@H](CP(=O)(O)CCCCN1C(=O)c2ccccc2C1=O)C(=O)N[C@@H](CC(C)C)C(=O)Nc1ccccc1
Ki [2]: 4400 nM
Ki [3]: ≥ 10000 nM
Ki [1]: 440 nM

SMILES: CC(C)C[C@H](NC(=O)[C@H](CCc1ccccc1)CP(=O)(O)CCCCNC(=O)c1ccccc1)C(=O)Nc1ccccc1
Ki [2]: 26 nM
Ki [3]: ≥ 10000 nM
Ki [1]: 5.7 nM

SMILES: CC(=O)N1CCC[C@H]1C(=O)NCCCCP(=O)(O)C[C@@H](CCc1ccccc1)C(=O)N[C@@H](CC(C)C)C(=O)Nc1ccccc1
Ki [2]: 6.1 nM
Ki [3]: ≥ 10000 nM
Ki [1]: 62 nM

SMILES: CC(C)C[C@H](NC(=O)[C@H](CCc1ccccc1)CP(=O)(O)CCCCNC(=O)NCc1ccccc1)C(=O)Nc1ccccc1
inhibition [4]: 96%
Ki [3]: ≥ 10000 nM
Ki [1]: 50 nM

SMILES: CCOC(=O)NCCCCP(=O)(O)C[C@@H](CCc1ccccc1)C(=O)N[C@@H](CC(C)C)C(=O)Nc1ccccc1
inhibition [4]: 94%
Ki [3]: ≥ 10000 nM
Ki [1]: 16 nM

SMILES: CC(C)C[C@H](NC(=O)[C@H](Cc1ccccc1)NP(=O)(O)CCCCN1C(=O)c2ccccc2C1=O)C(=O)NCc1ccccc1
IC50 [3]: 30000 nM
IC50 [1]: 2800 nM

SMILES: CC(C)C[C@H](NC(=O)[C@H](CCc1ccccc1)CP(=O)(O)CCC(=O)NCc1ccccc1)C(=O)Nc1ccccc1
Ki [5]: 540 nM
Ki [3]: ≥ 10000 nM

SMILES: CC(C)C[C@H](NP(=O)(O)CCCCN1C(=O)c2ccccc2C1=O)C(=O)N[C@@H](Cc1c[nH]c2ccccc12)C(=O)NCc1ccccc1
IC50 [3]: 50 nM
IC50 [1]: 260 nM

SMILES: CC(C)C[C@H](NC(=O)[C@H](CCc1ccccc1)CP(=O)(O)CCCCN1Cc2ccccc2C1=O)C(=O)Nc1ccccc1
Ki [2]: 7.3 nM
Ki [3]: ≥ 10000 nM
Ki [1]: 5.5 nM

SMILES: CCNC(=O)NCCCCP(=O)(O)C[C@@H](CCc1ccccc1)C(=O)N[C@@H](CC(C)C)C(=O)Nc1ccccc1
Ki [6]: 19 nM
Ki [3]: ≥ 10000 nM
Ki [1]: 17 nM

SMILES: CC(C)C[C@H](NC(=O)[C@H](CCc1ccccc1)CP(=O)(O)CCCCNC(=O)OCc1ccccc1)C(=O)Nc1ccccc1
inhibition [4]: 86%
Ki [3]: ≥ 10000 nM
Ki [1]: 63 nM

SMILES: CC(C)C[C@H](NC(=O)[C@H](CCc1ccccc1)CP(=O)(O)CCCCNC(=O)[C@H]1CCCN1C(=O)c1ccccc1)C(=O)Nc1ccccc1
inhibition [4]: 89%
Ki [3]: ≥ 10000 nM
Ki [1]: 24 nM

SMILES: CC(C)C[C@H](NC(=O)[C@H](CCc1ccccc1)CP(=O)(O)CCCCNC(=O)Cc1ccccc1)C(=O)Nc1ccccc1
Ki [2]: 130 nM
Ki [3]: ≥ 10000 nM
Ki [1]: 30 nM

SMILES: CC(C)C[C@H](NC(=O)[C@H](CCc1ccccc1)CP(=O)(O)CCCCN)C(=O)Nc1ccccc1
inhibition [4]: 13%
Ki [3]: ≥ 10000 nM
Ki [1]: 3700 nM

SMILES: CC(C)C[C@H](NC(=O)[C@H](CCc1ccccc1)CP(=O)(O)CCCCN1C(=O)c2ccccc2C1=O)C(=O)Nc1ccccc1
Ki [2]: 20 nM
Ki [3]: ≥ 10000 nM

SMILES: CC(C)C[C@H](NC(=O)[C@H](CCc1ccccc1)CP(=O)(O)C/C=C/CN1C(=O)c2ccccc2C1=O)C(=O)Nc1ccccc1
Ki [2]: 4.8 nM
Ki [3]: ≥ 10000 nM
Ki [1]: 4.5 nM

SMILES: CC(C)C[C@H](NC(=O)[C@H](CCc1ccccc1)CP(=O)(O)CCCCNC(=O)Nc1ccccc1)C(=O)Nc1ccccc1
inhibition [4]: 85%
Ki [3]: ≥ 10000 nM
Ki [1]: 70 nM
